Measured values as given in US20090317461A1, “ORAL COMPOSITIONS EFFECTIVE FOR THE TREATMENT OF ORAL CAVITY MALODOR ASSOCIATED WITH THE CONSUMPTION OF ODOR-CAUSING COMPOUNDS” (Wm. Wrigley Jr. Company, priority 2006, published 2009).

Experiments:
[1] = Menthol treatment of garlic model solution, TIC chromatogram peak area (Example 47)
Method: The following example details testing of menthol for treatment of solutions with characteristic garlic aroma. Model solutions containing raw chopped garlic dispersed in water were prepared as described in Example 1. Portions of model solution (2.5 g) were treated with menthol in varying amounts (0.5 mg, 1.0 mg, and 1.5 mg).

[2] = Sensory analysis: ten panelists rate odor intensity of raw macerated garlic solution with and without active; conditions: for reduction of odor (intensity) of raw macerated garlic in water: sensory panel; for Odor Intensity (0-100), Mean: N = 10 panelists
Method: Sensory analysis of the solutions utilized for analytical analyses of the raw garlic described above was conducted by ten panelists who evaluated the odor intensity of the model solution (raw macerated garlic) with and without the different levels of added active. Odor intensity was assessed utilizing a 0-100 point scale ballot with 0=no odor and 100=very strong odor.

[3] = Headspace diallyl disulfide of garlic model solution treated with menthone, GC/MS at 5 hour intervals (Example 3); conditions: menthone 1.63 mg in 2.5 g model solution; at each headspace analysis interval (5 hour intervals)
Method: A model solution containing raw chopped garlic dispersed in water was prepared as described in Example 1. […] For comparison purposes, the diallyl disulfide content of the headspace of a control model solution (i.e., no menthone added) was also analyzed.

CC1CCC(C(C)C)C(O)C1 (stereo not drawn) [menthol]
reduction in odor-causing compounds ([1]; 0.5 mg in 2.5 g model solution): approximately 43% | reduction in odor-causing compounds ([1]; 1 mg in 2.5 g model solution): approximately 51% | reduction in odor-causing compounds ([1]; 1.5 mg in 2.5 g model solution): approximately 60%

CC(C)[C@@H]1CC[C@@H](C)CC1=O [menthone]
reduction of odor (intensity) of raw macerated garlic in water ([2]; active concentration 0.3 mg/g): 48% | reduction of odor (intensity) of raw macerated garlic in water ([2]; active concentration 3 mg/g): 80% | Odor Intensity (0-100), Mean ([2]; menthone 0.33 mg/g): 5.2 | Odor Intensity (0-100), Mean ([2]; menthone 1 mg/g): 2.7 | Odor Intensity (0-100), Mean ([2]; menthone 3 mg/g): 2 | less diallyl disulfide in headspace than control model solution [3]: at least 50%
